Our source for the Activity, inhibition and IC50 values is ChEMBL document CHEMBL3751751, “Targeting quorum sensing by designing azoline derivatives to inhibit the N-hexanoyl homoserine lactone-receptor CviR: Synthesis as well as biological and theoretical evaluations” (Bioorg Med Chem, 2015).

The test system of series [1] is Chromobacterium violaceum. Put plainly: Bactericidal activity in Chromobacterium violaceum CV026 at 1000 uM. It counts as ADME, organism-based. To be noted: in vivo.
Series [2] deals with T1, CviR transcriptional regulator (Chromobacterium violaceum) (UniProt D3W065).
T1 sequence (whole entry): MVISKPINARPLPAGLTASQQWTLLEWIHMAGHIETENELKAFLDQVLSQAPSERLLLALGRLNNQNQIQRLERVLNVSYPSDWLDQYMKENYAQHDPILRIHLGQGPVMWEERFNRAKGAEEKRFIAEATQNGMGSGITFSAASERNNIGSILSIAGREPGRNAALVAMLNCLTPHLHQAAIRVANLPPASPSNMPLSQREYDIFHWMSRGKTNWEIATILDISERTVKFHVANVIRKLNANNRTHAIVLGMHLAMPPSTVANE
Put plainly: Agonist activity at CviR in Chromobacterium violaceum CV026 assessed as induction of violacein production at 0.001 to 1000 uM after 15 hrs.

Series [3] concerns the target T1, CviR transcriptional regulator (Chromobacterium violaceum). Put plainly: Inhibition of CviR in Chromobacterium violaceum CV026 assessed as reduction of violacein production at 1 nM after 15 hrs.
The target is the same in series [4]. Put plainly: Inhibition of CviR in Chromobacterium violaceum CV026 assessed as reduction of violacein production at 100 uM after 15 hrs.
Series [5] has as its target T2, CviR transcriptional regulator (Chromobacterium violaceum, UniProt D3W065).
T2 sequence (D3W065 whole entry): T1 sequence (whole entry)
Put plainly: Inhibition of CviR in Chromobacterium violaceum CV026 assessed as reduction of violacein production after 15 hrs.

The target of series [6] is T1, CviR transcriptional regulator (Chromobacterium violaceum). Put plainly: Inhibition of CviR in Chromobacterium violaceum CV026 assessed as reduction of violacein production at 0.001 to 1000 uM after 15 hrs.
For series [7] the target is unchanged. Put plainly: Inhibition of CviR in Chromobacterium violaceum CV026 assessed as reduction of violacein production at 1000 uM after 15 hrs.
Series [8] relates to Chromobacterium violaceum. Put plainly: Bacteriostatic activity in Chromobacterium violaceum CV026 at 100 uM. In kind it is ADME, organism-based. To be noted: in vivo.
Series [9] has as its system Chromobacterium violaceum. Put plainly: Bactericidal activity in Chromobacterium violaceum CV026 at 1 mM. It counts as ADME, organism-based. Particulars: in vivo, 1000 µM.
In series [10] the target is T1, CviR transcriptional regulator (Chromobacterium violaceum). Put plainly: Inhibition of CviR in Chromobacterium violaceum CV026 assessed as reduction of violacein production at 0.1 uM after 15 hrs.
Series [11] has the same target. Put plainly: Inhibition of CviR in Chromobacterium violaceum CV026 assessed as reduction of violacein production at 100 nM after 15 hrs.
For series [12] the target is unchanged. Put plainly: Inhibition of CviR in Chromobacterium violaceum CV026 assessed as reduction of violacein production at 10 to 1000 uM after 15 hrs.

Structures are written as SMILES. The source made the active and inactive calls. The rule behind the calls is not given here.

As a reminder, the inhibition is how much of the control response was suppressed. For orientation: IC50 means the concentration that inhibits the measured activity by half.

With `CCCCCCCCCOc1ccc(C2=NCCCN2)cc1`, the Activity result in [1] is “Toxic”. The result in series [2] was inactive.

Turning to `CCCCCCCCC(=O)Nc1ccc(C2=NCCN2)cc1`, the inhibition in series [3] was determined as 14%; in series [4], 49%. The outcome in series [2] was inactive.

`CCCCCCOc1ccc(C2=NCCN2)cc1`: the inhibition entry in series [4] was “Active”. The IC50 in series [5] stood at 90.9 µM. Also, the result in [2] was inactive.

`CCCCCCOc1ccccc1`: in [6], the inhibition result was “inactive”. In addition, the outcome in series [2] was inactive.

Turning to `O=C(Cc1ccccc1)NC1=NCCS1`, the inhibition entry in series [7] is “Active”. Moreover, in series [5], the IC50 stood at 670 µM. Besides, the result in [2] was inactive.

With `CCCCCCCCCCCC(=O)NC1=NCCS1`, the inhibition entry in [6] was “inactive”. For the same compound, the result in series [2] was inactive.

With `CCCCCCCCCOc1ccc(C2=NCCN2)cc1`, the Activity result in series [8] and in series [9] was “Toxic” throughout. Further, the result in series [2] was inactive.

Take `CCCCCC(=O)Nc1ccc(C2=NCCN2)cc1`: in series [10], the inhibition result was “Active”. For the same compound, the result in series [2] was inactive.

As for `CCCCCCCCCC(=O)NC1CCOC1=O` (stereo unspecified), the inhibition in series [11] turned out to be 51%. For the same compound, the outcome in series [2] was inactive.

Consider `CCCCCCOc1ccc(C2=NCCO2)cc1`, for which the inhibition entry in series [4] is “Active”. Further, the IC50 in [5] turned out to be 97.4 µM. Moreover, the result in series [2] was inactive.

In the case of `CCCCCC(=O)NC1=NCCS1`, the inhibition result in series [6] was “inactive”. Besides, the result in series [2] was inactive.

Take `O=C(COc1ccc(C2=NCCN2)cc1)Nc1ccc(Cl)cc1`: the result in [2] was inactive.

As to `O=C(NC1=NCCN1)c1ccccc1`, in series [6], the inhibition result is “inactive”. The result in [2] was inactive.

Take `O=C(NC1=NCCS1)c1ccccc1`: the inhibition entry in series [6] is “inactive”. In addition, the result in series [2] was inactive.

Regarding `CCCCCC(=O)NC1CCOC1=O` (stereo unspecified), in series [2], the outcome was inactive.

In the case of `COc1ccc(NC(=O)COc2ccc(C3=NCCN3)cc2)cc1`, the inhibition entry in [12] is “Active”. The IC50 in [5] amounted to 341 µM. In addition, in [2], the outcome was inactive.

Consider `CCCCCCCCC(=O)NC1=NCCS1`, for which the inhibition result in [6] is “inactive”. In addition, the result in series [2] was inactive.

On to `O=C(COc1ccc(C2=NCCN2)cc1)Nc1ccccc1`, for which, in series [12], the inhibition result was “Active”. The IC50 in [5] was found to be 66.1 µM. The result in series [2] was inactive.
